Legend:
SNB-75 (CNS Cancer) = assay: NCI one dose, SNB-75; type: cell-based, human; details: SNB-75, 1.00E-5 Molar one dose
Protocol: (§1) 3.4. Cell Proliferation Assay
(§2) Selected compounds were tested on a panel of 60 human cancer cell lines at the National Cancer Institute (NCI), Germantown, MD, USA. The cytotoxicity studies were conducted using a 48 h exposure protocol using the sulfo-rhodamine B assay.

UO-31 renal cancer cells = assay: NCI one dose, UO-31; type: cell-based, human; details: for Growth Percent: UO-31, 1.00E-5 Molar one dose
Protocol: as §1, §2

SR (Leukemia) = assay: NCI one dose, SR; type: cell-based, human; details: 1.00E-5 Molar one dose
Protocol: as §1, §2

MDA-MB-435 (Melanoma) = assay: NCI one dose, MDA-MB-435; type: cell-based, human; details: MDA-MB-435, 1.00E-5 Molar one dose
Protocol: as §1, §2

SK-MEL-5 (Melanoma) = assay: NCI one dose, SK-MEL-5; type: cell-based, human; details: SK-MEL-5, 1.00E-5 Molar one dose
Protocol: as §1, §2

[1] = molecular target: human farnesyltransferase (FTase) (Homo sapiens, UniProt P49354+P49356); assay: FTase inhibitory assay (fluorescence, Dansyl-GCVLS); type: biochemical; details: for % FTI: inhibition of human FTase at 100 μM of tested compound, mean of two experiments
Summary of the method: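 Partially purified recombinant FTase with Dansyl-GCVLS and farnesyl pyrophosphate in Tris/HCl pH 7.5 (DTT, MgCl2, ZnCl2, octyl-glucoside); fluorescence (ex 340/em 486 nm) read 15 min at 30 °C. IC50 by regression for compounds inhibiting >60% at 100 µM; kinetics varied FPP (Dns-GCVLS 2.5 μM) or peptide (FPP 10 μM).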

SF-539 (CNS Cancer) = assay: NCI one dose, SF-539; type: cell-based, human; details: SF-539, 1.00E-5 Molar one dose
Protocol: as §1, §2

[2] = system: panel of 60 human cancer cell lines; assay: NCI 60 cell panel one dose screen (whole panel); type: cell-based; set-up: Delta (One Dose Mean Graph): unit not given here; details: 1.00E-5 Molar one dose; for Range (One Dose Mean Graph): in % (unit assumed); for Mean Growth Percent: mean over tested cell lines
Protocol: as §1
Selected compounds were tested on a panel of 60 human cancer cell lines at the National Cancer Institute (NCI), Germantown, MD, USA. The cytotoxicity studies were conducted using a 48 h exposure protocol using the sulfo-rhodamine B assay. […]
X. NCI One Dose Mean Graph of sulfides 4a(A -J) and 4b(A-J)
The entire series of sulfides regrouping twenty synthesized FTI-candidates (4aA-J, 4bA-J) were selected by the National Cancer Institute (NCI) for evaluation of their antiproliferative activity against 60 cancer cell lines (see the followings twenty pages for full evaluation reports). […]
inhibiting 36% of the NCI-H522 cells. Such difference between IC50 on human FTase in the nanomolar range and IC50 on cancer cell growth in the micromolar range is characteristic to potent FTIs and was reported previously on different series of compounds (see for example ref erence in the references part […]
Of interest, none of the tested compounds at a high single dose (10 µM) in the full NCI 60 cell panel has shown a cytotoxic profile. […]
inhibitory potential on FTase raise good hope for further investigation of these series as agents fighting

HCT-116 (Colon Cancer) = assay: NCI one dose, HCT-116; type: cell-based, human; details: HCT-116, 1.00E-5 Molar one dose
Protocol: as §1, §2

[3] = system: HOP-92 (Non-Small Cell Lung Cancer); assay: NCI one dose, HOP-92; type: cell-based, human; details: HOP-92, 1.00E-5 Molar one dose
Protocol: as §1, §2

CCRF-CEM (Leukemia) = assay: NCI one dose, CCRF-CEM; type: cell-based, human; details: 1.00E-5 Molar one dose
Protocol: as §1, §2

OVCAR-4 (Ovarian Cancer) = assay: NCI one dose, OVCAR-4; type: cell-based, human; details: OVCAR-4, 1.00E-5 Molar one dose
Protocol: as §1, §2

[4] = system: A549/ATCC (Non-Small Cell Lung Cancer); assay: NCI one dose, A549/ATCC; type: cell-based, human; details: 1.00E-5 Molar one dose
Protocol: as §1, §2

MCF7 (Breast Cancer) = assay: NCI one dose, MCF7; type: cell-based, human; details: MCF7, 1.00E-5 Molar one dose
Protocol: as §1, §2

[5] = system: EKVX (Non-Small Cell Lung Cancer); assay: NCI one dose, EKVX; type: cell-based, human; details: 1.00E-5 Molar one dose
Protocol: as §1, §2

[6] = system: NCI/ADR-RES (Ovarian Cancer); assay: NCI one dose, NCI/ADR-RES; type: cell-based, human; details: 1.00E-5 Molar one dose
Protocol: as §1, §2

OVCAR-8 (Ovarian Cancer) = assay: NCI one dose, OVCAR-8; type: cell-based, human; details: OVCAR-8, 1.00E-5 Molar one dose
Protocol: as §1, §2

RXF 393 (Renal Cancer) = assay: NCI one dose, RXF 393; type: cell-based, human; details: RXF 393, 1.00E-5 Molar one dose
Protocol: as §1, §2

[7] = system: NCI-H23 (Non-Small Cell Lung Cancer); assay: NCI one dose, NCI-H23; type: cell-based, human; details: NCI-H23, 1.00E-5 Molar one dose
Protocol: as §1, §2

OVCAR-3 (Ovarian Cancer) = assay: NCI one dose, OVCAR-3; type: cell-based, human; details: OVCAR-3, 1.00E-5 Molar one dose
Protocol: as §1, §2

K-562 leukaemia cells = assay: NCI one dose, K-562; type: cell-based, human; details: for Growth Percent: K-562, 1.00E-5 Molar one dose
Protocol: as §1, §2

LOX IMVI (Melanoma) = assay: NCI one dose, LOX IMVI; type: cell-based, human; details: 1.00E-5 Molar one dose
Protocol: as §1, §2

Row | SMILES | Growth Percent (SNB-75 (CNS Cancer)) | Growth Percent (UO-31 renal cancer cells) | Growth Percent (SR (Leukemia)) | Growth Percent (MDA-MB-435 (Melanoma)) | Growth Percent (SK-MEL-5 (Melanoma)) | % FTI [1] | Growth Percent (SF-539 (CNS Cancer)) | Delta (One Dose Mean Graph) [2] | Range (One Dose Mean Graph) [2] | Mean Growth Percent [2] | Growth Percent (HCT-116 (Colon Cancer)) | Growth Percent [3] | Growth Percent (CCRF-CEM (Leukemia)) | Growth Percent (OVCAR-4 (Ovarian Cancer)) | Growth Percent [4] | Growth Percent (MCF7 (Breast Cancer)) | Growth Percent [5] | Growth Percent [6] | Growth Percent (OVCAR-8 (Ovarian Cancer)) | Growth Percent (RXF 393 (Renal Cancer)) | also measured
1 | COc1ccccc1CNC(=O)[C@@H]1CS[C@@]2(C)c3ccccc3C(=O)N12 [4bG] | 96.63% | 94.50% | 82.72% | 103.94% | 98.16% | 30% | 109.96% | 28.52 | 40.41 | 98.55% | 99.72% | 98.11% | 98.16% | 95.75% | 78.33% | 92.90% | 102.57% | 102.18% | 95.21% | 105.28% | Growth Percent [7]: 103.28%; Growth Percent (OVCAR-3 (Ovarian Cancer)): 110.44%; Growth Percent (K-562 leukaemia cells): 85.09%; Growth Percent (LOX IMVI (Melanoma)): 98.70%
2 | C[C@@]12SC[C@@H](C(=O)NCc3ccc(Cl)cc3Cl)N1C(=O)c1ccccc12 [4bH] | 99.75% | 86.15% | 88.00% | 102.36% | 92.84% | 22% | 100.42% | 23.83 | 40.77 | 95.56% | 96.09% | 106.23% | 84.65% | 93.22% | 77.42% | 89.35% | 112.50% | 96.56% | 93.06% | 102.82% | Growth Percent [7]: 94.51%; Growth Percent (OVCAR-3 (Ovarian Cancer)): 101.07%; Growth Percent (K-562 leukaemia cells): 79.34%; Growth Percent (LOX IMVI (Melanoma)): 101.94%
3 | COc1ccc(CNC(=O)[C@@H]2CS[C@@]3(C)c4ccccc4C(=O)N23)cc1OC [4bI] | 110.74% | 79.77% | 75.23% | 105.24% | 88.12% | 78% | 99.30% | 38.86 | 57.76 | 93.56% | 95.39% | 93.76% | 81.76% | 91.78% | 79.51% | 87.17% | 107.62% | 100.18% | 91.42% | 104.59% | inhibition at 10 µM (UO-31 renal cancer cells; Homo sapiens, UO-31, 10 µM single dose, read-out: inhibition of growth of UO-31 renal cancer cells): 20%; IC50 ([1]; human FTase in vitro): 0.0251 µM; Growth Percent [7]: 82.91%; Growth Percent (OVCAR-3 (Ovarian Cancer)): 110.84%; inhibition at 10 µM (K-562 leukaemia cells; Homo sapiens, K562, 10 µM single dose, read-out: inhibition of growth of K-562 leukaemia cells): 34%; Growth Percent (K-562 leukaemia cells): 66.10%; Growth Percent (LOX IMVI (Melanoma)): 100.38%
4 | COc1cc(CNC(=O)[C@@H]2CS[C@@]3(C)c4ccccc4C(=O)N23)cc(OC)c1OC [4bJ] | 97.50% | 90.29% | 77.35% | 104.68% | 102.14% | 74% | 98.24% | 27.08 | 43.64 | 95.84% | 98.10% | 88.36% | 90.73% | 97.02% | 83.12% | 93.75% | 108.30% | 101.60% | 92.35% | 98.72% | IC50 ([1]; human FTase): 4.35 µM; IC50 ([1]; human FTase in vitro): 4.35 µM; Growth Percent [7]: 96.92%; Growth Percent (OVCAR-3 (Ovarian Cancer)): 112.40%; Growth Percent (K-562 leukaemia cells): 71.92%; Growth Percent (LOX IMVI (Melanoma)): 105.04%

Reference: PMC11855478, “Bicyclic N,S-Acetals Containing Fused Cysteine-Amide System as New Heterocyclic Class Targeting Human Farnesyltransferase (FTase-h)” (International Journal of Molecular Sciences, 2025)
